{"source": "patent US11773369B2", "about": "“Generation of human spinal cord neural stem cells” (THE REGENTS OF THE UNIVERSITY OF CALIFORNIA, priority 2018, dated 2023)", "tested_on": "H9-derived spinal cord NSCs", "experiment": "Long-term maintenance and expansion of spinal cord NSCs in neural maintenance media", "assay_type": "cell-based, human", "settings": "for effect of omission from maintenance media on cultures: omission of the component, data not shown", "data": [{"smiles": "CNC1CCC(N(Cc2cccc(-c3ccncc3)c2)C(=O)c2sc3c(F)ccc(F)c3c2Cl)CC1", "note": "(stereo not drawn) [Hh-Ag1.5]", "values": [{"measurement": "effect on dorso-ventral polarity of induced cells (NKX6.1, PAX6)", "setting": "18 days after neural induction", "value": "disrupted dorso-ventral polarity"}, {"measurement": "effect of omission from maintenance media on cultures", "value": "failure to sustain cultures over time"}]}, {"smiles": "Cc1c[nH]c(-c2cnc(NCCNc3ccc(C#N)cn3)nc2-c2ccc(Cl)cc2Cl)n1", "note": "[CHIR]", "values": [{"measurement": "effect of omission from maintenance media on cultures", "value": "failure to sustain cultures over time"}]}]}
